Experimental data reported in US20100298141A1, “SUBSTITUTED PYRIDINE N-OXIDE HERBICIDES” (E. I. DU PONT DE NEMOURS AND COMPANY, priority 2007, published 2010).

Key:
corn (ZEAMD) [1] = assay: Test H preemergence mixtures of compound 2 with crop safeners; assay type: in vivo, Zea mays cv. ‘Pioneer 33G26’; design: key to ZEAMD Obsd. (observed effect): observed % effect, visually evaluated vs controls; conditions: for ZEAMD Obsd. (observed effect): Test H, alone; for Plant response rating ZEAMD Obsd.: scale 0 to 100
Excerpt: (§1) Seeds of test plants consisting of winter wheat (TRZAW, Triticum aestivum), corn (ZEAMD, Zea mays cv. ‘Pioneer 33G26’), giant foxtail (SETFA, Setaria faberi), and Italian ryegrass (LOLMU, Lolium multiflorum) were planted into a blend of loam soil and sand and treated preemergence with a directed soil spray using test chemicals formulated in a non-phytotoxic solvent mixture that included a surfactant. Seeds of small-seeded species were planted about 1 cm deep; larger seeds were planted about 2.5 cm deep. […] Balanced fertilizer was applied through the watering system. Treatments consisted of Compound 2 and the above mentioned safeners alone and in combination using a spray volume of 457 L/ha. Each treatment was replicated four times. Treated plants and controls were maintained in a greenhouse for 14 to 21 days, after which time all species were compared to controls and visually evaluated. […] A dash (-) response means no test result. Colby's Equation was used to determine the herbicidal effects expected from the mixtures. Colby's Equation (Colby, S. […] wherein • Pa+b is the percentage effect of the mixture expected from additive contribution of the individual components, • Pa is the observed percentage effect of the first active ingredient at the same use rate as in the mixture, and • Pb is the observed percentage effect of the second active ingredient at the same use rate as in the mixture.

giant foxtail (SETFA) = assay: as above; assay type: in vivo, Setaria faberi; design: key to SETFA Obsd. (observed effect): observed % effect, visually evaluated vs controls; conditions: for SETFA Obsd. (observed effect): Test H, alone; for Plant response rating SETFA Obsd.: scale 0 to 100
Excerpt: as §1

Italian ryegrass (LOLMU) [2] = assay: as above; assay type: in vivo, Lolium multiflorum; design: key to LOLMU Obsd. (observed effect): observed % effect, visually evaluated vs controls; conditions: for LOLMU Obsd. (observed effect): Test H, alone; for Plant response rating LOLMU Obsd.: scale 0 to 100
Excerpt: as §1

winter wheat (TRZAW) [3] = assay: as above; assay type: in vivo, Triticum aestivum; design: key to TRZAW Obsd. (observed effect): observed % effect, visually evaluated vs controls; conditions: for TRZAW Obsd. (observed effect): Test H, alone; for Plant response rating TRZAW Obsd.: scale 0 to 100
Excerpt: as §1

corn (ZEAMD) [4] = assay: Test J preemergence mixtures of Compound 2 with crop safeners; assay type: in vivo, Zea mays cv. ‘Pioneer 33G26’; design: key to ZEAMD Obsd. (observed effect): observed % herbicidal effect; conditions: for ZEAMD Obsd. (observed effect): Test J, alone
Excerpt: as §1, with “aestivum) and” for “aestivum),”, “33G26’)” for “33G26’), giant foxtail (SETFA, Setaria faberi), and Italian ryegrass (LOLMU, Lolium multiflorum)”, “surfactant.” for “surfactant. Seeds of small-seeded species were planted about 1 cm deep; larger seeds were planted about 2.5 cm deep.”, “times.” for “times. Treated plants and controls were maintained in a greenhouse for 14 to 21 days, after which time all species were compared to controls and visually evaluated.”, “and” for “and •”

Italian ryegrass (LOLMU) [5] = assay: Test I preemergence mixtures of compound 2 with crop safeners; assay type: in vivo, Lolium multiflorum; conditions: alone
Excerpt: (§2) Seeds of test plants consisting of winter wheat (TRZAW, Triticum aestivum), corn (ZEAMD, Zea mays cv. ‘Pioneer 33G26’), wild oat (AVEFA, Avena fatua), and Italian ryegrass (LOLMU, Lolium multiflorum) were planted into a blend of loam soil and sand and treated preemergence with a directed soil spray using test chemicals formulated in a non-phytotoxic solvent mixture that included a surfactant. Seeds of small-seeded species were planted about 1 cm deep; larger seeds were planted about 2.5 cm deep. […] Balanced fertilizer was applied through the watering system. Treatments consisted of Compound 2 and the above mentioned safeners alone and in combination using a spray volume of 457 L/ha. Each treatment was replicated four times. Treated plants and controls were maintained in a greenhouse for 14 to 21 days, after which time all species were compared to controls and visually evaluated. […] A dash (-) response means no test result. Colby's Equation was used to determine the herbicidal effects expected from the mixtures. Colby's Equation (Colby, S. […] Pa+b=Pa+Pb−(PaPb/100) wherein • Pa+b is the percentage effect of the mixture expected from additive contribution of the individual components, • Pa is the observed percentage effect of the first active ingredient at the same use rate as in the mixture, and • Pb is the observed percentage effect of the second active ingredient at the same use rate as in the mixture.

winter wheat (TRZAW) [6] = assay: Test J preemergence mixtures of Compound 2 with crop safeners; assay type: in vivo, Triticum aestivum; design: key to TRZAW Obsd. (observed effect): observed % herbicidal effect; conditions: for TRZAW Obsd. (observed effect): Test J, alone
Excerpt: as §1, with “aestivum) and” for “aestivum),”, “33G26’)” for “33G26’), giant foxtail (SETFA, Setaria faberi), and Italian ryegrass (LOLMU, Lolium multiflorum)”, “surfactant.” for “surfactant. Seeds of small-seeded species were planted about 1 cm deep; larger seeds were planted about 2.5 cm deep.”, “times.” for “times. Treated plants and controls were maintained in a greenhouse for 14 to 21 days, after which time all species were compared to controls and visually evaluated.”, “and” for “and •”

winter wheat (TRZAW) [7] = assay: Test I preemergence mixtures of compound 2 with crop safeners; assay type: in vivo, Triticum aestivum; conditions: alone
Excerpt: as §2

wild oat (AVEFA) = assay: as above; assay type: in vivo, Avena fatua; conditions: alone
Excerpt: as §2

corn (ZEAMD) [8] = assay: as above; assay type: in vivo, Zea mays cv. ‘Pioneer 33G26’; conditions: alone
Excerpt: as §2

[9] = cloquintocet-mexyl alone 8 g a.i./ha
[10] = cloquintocet-mexyl alone 16 g a.i./ha
[11] = cloquintocet-mexyl alone 31 g a.i./ha

| SMILES | ZEAMD Obsd. (observed effect) (corn (ZEAMD) [1]; 8 g a.i./ha) | ZEAMD Obsd. (observed effect) (corn (ZEAMD) [1]; 16 g a.i./ha) | ZEAMD Obsd. (observed effect) (corn (ZEAMD) [1]; 31 g a.i./ha) | SETFA Obsd. (observed effect) (giant foxtail (SETFA); 8 g a.i./ha) | SETFA Obsd. (observed effect) (giant foxtail (SETFA); 16 g a.i./ha) | SETFA Obsd. (observed effect) (giant foxtail (SETFA); 31 g a.i./ha) | LOLMU Obsd. (observed effect) (Italian ryegrass (LOLMU) [2]; 8 g a.i./ha) | LOLMU Obsd. (observed effect) (Italian ryegrass (LOLMU) [2]; 16 g a.i./ha) | LOLMU Obsd. (observed effect) (Italian ryegrass (LOLMU) [2]; 31 g a.i./ha) | TRZAW Obsd. (observed effect) (winter wheat (TRZAW) [3]; 8 g a.i./ha) | TRZAW Obsd. (observed effect) (winter wheat (TRZAW) [3]; 16 g a.i./ha) | TRZAW Obsd. (observed effect) (winter wheat (TRZAW) [3]; 31 g a.i./ha) | LOLMU Obsd. (observed effect) (Italian ryegrass (LOLMU) [5]; 4 g a.i./ha) | LOLMU Obsd. (observed effect) (Italian ryegrass (LOLMU) [5]; 8 g a.i./ha) | TRZAW Obsd. (observed effect) (winter wheat (TRZAW) [7]; 4 g a.i./ha) | TRZAW Obsd. (observed effect) (winter wheat (TRZAW) [7]; 8 g a.i./ha) | AVEFA Obsd. (observed effect) (wild oat (AVEFA); 4 g a.i./ha) | AVEFA Obsd. (observed effect) (wild oat (AVEFA); 8 g a.i./ha) | ZEAMD Obsd. (observed effect) (corn (ZEAMD) [8]; 4 g a.i./ha) | ZEAMD Obsd. (observed effect) (corn (ZEAMD) [8]; 8 g a.i./ha) | also measured |
| --- | --- | --- | --- | --- | --- | --- | --- | --- | --- | --- | --- | --- | --- | --- | --- | --- | --- | --- | --- | --- | --- |
| O=C1OC(=O)c2cccc3cccc1c23 [naphthalic anhydride, 1,8-naphthalic anhydride] | 0 | 0 | 0 | 0 | 0 | 0 | 13 | 0 | 0 | 3 | 0 | 0 |  |  |  |  |  |  |  |  |  |
| CCOC(=O)C1=NOC(c2ccccc2)(c2ccccc2)C1 [isoxadifen-ethyl] | 0 | 0 | 0 | 0 | 0 | 3 | 0 | 0 | 0 | 0 | 0 | 0 | 0 | 0 | 0 | 0 | 0 | 0 | 0 | 0 | Observed effect (Obsd.), ZEAMD (corn (ZEAMD) [4]; safener alone at 8 g a.i./ha): 0%; Observed effect (Obsd.), ZEAMD (corn (ZEAMD) [4]; safener alone at 31 g a.i./ha): 0%; Observed effect (Obsd.), ZEAMD (corn (ZEAMD) [4]; safener alone at 500 g a.i./ha): 0%; Observed effect (Obsd.), ZEAMD (corn (ZEAMD) [4]; single active ingredient alone at 125 g a.i./ha): 0%; Observed effect (Obsd.), TRZAW (winter wheat (TRZAW) [6]; safener alone at 8 g a.i./ha): 0%; Observed effect (Obsd.), TRZAW (winter wheat (TRZAW) [6]; safener alone at 31 g a.i./ha): 0%; Observed effect (Obsd.), TRZAW (winter wheat (TRZAW) [6]; safener alone at 500 g a.i./ha): 0% |
| C=CCN(CC=C)C(=O)C(Cl)Cl [dichlormid] | 0 | 0 | 0 | 0 | 0 | 3 | 0 | 0 | 0 | 0 | 0 | 0 | 0 | 0 | 0 | 0 | 0 | 0 | 0 | 0 | Observed effect (Obsd.), ZEAMD (corn (ZEAMD) [4]; safener alone at 8 g a.i./ha): 0%; Observed effect (Obsd.), ZEAMD (corn (ZEAMD) [4]; safener alone at 31 g a.i./ha): 0%; Observed effect (Obsd.), ZEAMD (corn (ZEAMD) [4]; safener alone at 500 g a.i./ha): 0%; Observed effect (Obsd.), TRZAW (winter wheat (TRZAW) [6]; safener alone at 8 g a.i./ha): 0%; Observed effect (Obsd.), TRZAW (winter wheat (TRZAW) [6]; safener alone at 31 g a.i./ha): 0% |
| CC(C)(C)c1ccc(C(=O)O)cc1 [4-t-butyl benzoic acid] |  |  |  |  |  |  |  |  |  |  |  |  |  |  |  |  |  |  |  |  | ZEAMD Obsd. (observed effect) (corn (ZEAMD) [4]; 8 g a.i./ha): 0; ZEAMD Obsd. (observed effect) (corn (ZEAMD) [4]; 31 g a.i./ha): 0; ZEAMD Obsd. (observed effect) (corn (ZEAMD) [4]; 125 g a.i./ha): 0; ZEAMD Obsd. (observed effect) (corn (ZEAMD) [4]; 500 g a.i./ha): 0; TRZAW Obsd. (observed effect) (winter wheat (TRZAW) [6]; 8 g a.i./ha): 0; TRZAW Obsd. (observed effect) (winter wheat (TRZAW) [6]; 31 g a.i./ha): 0; TRZAW Obsd. (observed effect) (winter wheat (TRZAW) [6]; 125 g a.i./ha): 0; TRZAW Obsd. (observed effect) (winter wheat (TRZAW) [6]; 500 g a.i./ha): 0 |
| CC1COc2ccccc2N1C(=O)C(Cl)Cl (stereo not drawn) [benoxacor] | 0 | 0 | 0 | 0 | 3 | 0 | 0 | 0 | 0 | 0 | 0 | 0 | 0 | 0 | 0 | 0 | 0 | 0 | 0 | 0 | ZEAMD Obsd. (observed effect) (corn (ZEAMD) [4]; 8 g a.i./ha): 0; ZEAMD Obsd. (observed effect) (corn (ZEAMD) [4]; 31 g a.i./ha): 0; ZEAMD Obsd. (observed effect) (corn (ZEAMD) [4]; 125 g a.i./ha): 0; ZEAMD Obsd. (observed effect) (corn (ZEAMD) [4]; 500 g a.i./ha): 0; TRZAW Obsd. (observed effect) (winter wheat (TRZAW) [6]; 8 g a.i./ha): 0; TRZAW Obsd. (observed effect) (winter wheat (TRZAW) [6]; 31 g a.i./ha): 0; TRZAW Obsd. (observed effect) (winter wheat (TRZAW) [6]; 125 g a.i./ha): 0; TRZAW Obsd. (observed effect) (winter wheat (TRZAW) [6]; 500 g a.i./ha): 0 |
| CCCCCC(C)OC(=O)COc1ccc(Cl)c2cccnc12 (stereo not drawn) [cloquintocet-mexyl] |  |  |  |  |  |  |  |  |  |  |  |  | 0 | 0 | 0 | 0 | 0 | 0 | 0 | 0 | Plant response rating ZEAMD Obsd. (corn (ZEAMD) [1]; [9]): 0; Plant response rating ZEAMD Obsd. (corn (ZEAMD) [1]; [10]): 0; Plant response rating ZEAMD Obsd. (corn (ZEAMD) [1]; [11]): 0; Plant response rating SETFA Obsd. (giant foxtail (SETFA); [9]): 5; Plant response rating SETFA Obsd. (giant foxtail (SETFA); [10]): 3; Plant response rating SETFA Obsd. (giant foxtail (SETFA); [11]): 8; Plant response rating LOLMU Obsd. (Italian ryegrass (LOLMU) [2]; [9]): 0; Plant response rating LOLMU Obsd. (Italian ryegrass (LOLMU) [2]; [10]): 8; Plant response rating LOLMU Obsd. (Italian ryegrass (LOLMU) [2]; [11]): 0; Plant response rating TRZAW Obsd. (winter wheat (TRZAW) [3]; [9]): 0; Plant response rating TRZAW Obsd. (winter wheat (TRZAW) [3]; [10]): 0; Plant response rating TRZAW Obsd. (winter wheat (TRZAW) [3]; [11]): 0 |
| CCOC(=O)C1=NN(c2ccc(Cl)cc2Cl)C(C)(C(=O)OCC)C1 (stereo not drawn) [mefenpyr-diethyl] | 0 | 0 | 0 | 0 | 0 | 1 | 3 | 0 | 0 | 0 | 0 | 0 |  |  |  |  |  |  |  |  |  |
